Broadly, the EC50 is the concentration needed to bring the measured effect to its halfway point. Read a high EC50 as a less potent agent.

A value given as a limit tells only on which side of the number the result lay.

The results in this text go back to patent US10723733B2, “Hepatitis B antiviral agents” (Enanta Pharmaceuticals, Inc., priority 2017, dated 2020).

One experiment deals with HBV. Kind of experiment: HepAD38 antiviral assay: reduction of viral product accumulation (virion DNA by qPCR, HBsAg/HBeAg by ELISA). The experiment is classed as cell-based. The conditions noted are these: Hepatitis B virus, 120 h; HepAD38 cells; 50% reduction of viral product accumulation vs no drug controls; five days after compound addition; class symbols. As for the experimental part: Methods: HepAD38 cells are maintained as previously reported (Ladner et al, Antimicrob. Agents Chemother. 1997, […], 1715). Briefly, cells are passaged upon attaining confluency in DMEM/F12 media in the presence of 10% FBS, Penn/Strep, 250 μg/mL G418, and 1 μg/ml tetracycline. Novel compounds are screened by first washing cells three times with PBS to remove tetracycline, and plating in 96 well plates at 35,000 cells/well. Compounds dissolved in DMSO are then diluted 1:200 into wells containing cells. Five days after compound addition, material is harvested for analysis. For an extended 8 day analysis, cells are plated and treated as described above, but media and compound are refreshed on d2 and d5 post initial treatment.
On harvest day, virion DNA is obtained by lysing with Sidestep Lysis and Stabilization Buffer and then quantified via quantitative real time PCR. Commercially available ELISA kits are used to quantitate the viral proteins HBsAg (Alpco) or HbeAg (US Biological) by following the manufacturer's recommended protocol after diluting samples to match the linear range of their respective assays. Irrespective of readout, compound concentrations that reduce viral product accumulation in the cell lysates or supernatants by 50% relative to no drug controls (EC50) are reported; EC50 ranges are as follows: A<0.1 μM; B 0.1-1 μM; C>1 μM.
A general note: Quantitative PCR measures a nucleic acid by following its amplification.
In turn, `OCC(F)(CO)CC1=C(c2cnn(C(F)F)c2)[C@H](c2ccc(F)cc2Cl)N=C(c2nccs2)N1` [Example 137] registered an EC50 of 0.1 to 1 µM.

Compound `COCC(F)(COC)CC1=C(c2cnn(C(F)F)c2)[C@H](c2ccc(F)cc2Cl)N=C(c2nccs2)N1` [Example 138] gave an EC50 of 0.1 to 1 µM.

The compound `C[C@H]1OC[C@@](F)(CC2=C(c3cnn(C(F)F)c3)[C@H](c3ccc(F)cc3Cl)N=C(c3nccs3)N2)CO1` [Example 140] registered an EC50 of 0.1 to 1 µM.

The experiment is the same for the next values; noted with them: Hepatitis B virus, 120 h; HepAD38 cells; 50% reduction of viral product accumulation vs no drug controls; five days after compound addition; given as numeric bound.
In turn, `COC(=O)NC[C@H]1CN(CC2=C(c3ccn(C(F)F)n3)[C@H](c3ccc(F)cc3Cl)N=C(c3nccs3)N2)C(=O)O1` [Example 125] registered an EC50 of over 0.4 µM.

Compound `CCOC(=O)NC[C@H]1CN(CC2=C(c3ccn(C(F)F)n3)[C@H](c3ccc(F)cc3Cl)N=C(c3nccs3)N2)C(=O)O1` [Example 126] returned an EC50 of over 0.4 µM.

`CC(C)(C)OC(=O)NC[C@@H]1CN(CC2=C(c3ccn(C(F)F)n3)[C@H](c3ccc(F)cc3Cl)N=C(c3nccs3)N2)C(=O)O1` [Example 127]: the EC50 was over 0.4 µM.

Consider `COC(=O)NC[C@@H]1CN(CC2=C(c3ccn(C(F)F)n3)[C@H](c3ccc(F)cc3Cl)N=C(c3nccs3)N2)C(=O)O1` [Example 128], for which the concentration for a half-maximal effect (EC50) is over 0.4 µM.

The compound `CCOC(=O)NC[C@@H]1CN(CC2=C(c3ccn(C(F)F)n3)[C@H](c3ccc(F)cc3Cl)N=C(c3nccs3)N2)C(=O)O1` [Example 129] displayed an EC50 of over 0.4 µM.

`CC(C)(C)OC(=O)NC[C@H]1CCC(=O)N1CC1=C(c2ccn(C(F)F)n2)[C@H](c2ccc(F)cc2Cl)N=C(c2nccs2)N1` [Example 130] showed an EC50 of over 0.4 µM.

`CC(C)(C)OC(=O)NC[C@@H]1CCC(=O)N1CC1=C(c2ccn(C(F)F)n2)[C@H](c2ccc(F)cc2Cl)N=C(c2nccs2)N1` [Example 131] came in with an EC50 of over 0.4 µM.

In turn, `COC(=O)NC[C@H]1CCC(=O)N1CC1=C(c2ccn(C(F)F)n2)[C@H](c2ccc(F)cc2Cl)N=C(c2nccs2)N1` [Example 132] gave an EC50 of over 0.4 µM.

As for `COC(=O)NC[C@@H]1CCC(=O)N1CC1=C(c2ccn(C(F)F)n2)[C@H](c2ccc(F)cc2Cl)N=C(c2nccs2)N1` [Example 133], the EC50 is over 0.4 µM.

Consider `CCOC(=O)NC[C@H]1CCC(=O)N1CC1=C(c2ccn(C(F)F)n2)[C@H](c2ccc(F)cc2Cl)N=C(c2nccs2)N1` [Example 134], for which the EC50 was over 0.4 µM.

Take `CCOC(=O)NC[C@@H]1CCC(=O)N1CC1=C(c2ccn(C(F)F)n2)[C@H](c2ccc(F)cc2Cl)N=C(c2nccs2)N1` [Example 135]: the EC50 is over 0.4 µM.

`C=CCOCC(F)(COC)CC1=C(c2cnn(C(F)F)c2)[C@H](c2ccc(F)cc2Cl)N=C(c2nccs2)N1` (some centres unmarked) [Example 136] showed an EC50 of over 0.4 µM.

Regarding `C[C@H]1OC[C@](F)(CC2=C(c3cnn(C(F)F)c3)[C@H](c3ccc(F)cc3Cl)N=C(c3nccs3)N2)CO1` [Example 139], the EC50 was over 0.4 µM.

As to `CCC[C@H]1OC[C@](F)(CC2=C(c3cnn(C(F)F)c3)[C@H](c3ccc(F)cc3Cl)N=C(c3nccs3)N2)CO1` [Example 141], the EC50 is over 0.4 µM.

In the case of `CCC[C@H]1OC[C@@](F)(CC2=C(c3cnn(C(F)F)c3)[C@H](c3ccc(F)cc3Cl)N=C(c3nccs3)N2)CO1` [Example 142], the EC50 was over 0.4 µM.

The compound `Fc1ccc([C@@H]2N=C(c3nccs3)NC(C[C@]3(F)CO[C@@H](c4ccccc4)OC3)=C2c2cnn(C(F)F)c2)c(Cl)c1` [Example 143] registered an EC50 of over 0.4 µM.

For the compound `Fc1ccc([C@@H]2N=C(c3nccs3)NC(C[C@]3(F)CO[C@H](c4ccccc4)OC3)=C2c2cnn(C(F)F)c2)c(Cl)c1` [Example 144], the EC50 was over 0.4 µM.

As to `O=S(=O)(CC1=C(c2cnn(C(F)F)c2)[C@H](c2ccc(F)cc2Cl)N=C(c2nccs2)N1)C1CCCC1` [Example 145], the EC50 was over 0.4 µM.

`O=S(=O)(CC1=C(c2cnn(C(F)F)c2)[C@H](c2ccc(F)cc2Cl)N=C(c2nccs2)N1)N1CCC(O)CC1` [Example 146]: the EC50 is over 0.4 µM.

`OCC(F)(F)CC1=C(c2cnn(C(F)F)c2)[C@H](c2ccc(F)cc2Cl)N=C(c2nccs2)N1` [Example 147] gave an EC50 of over 0.4 µM.
